One data set deals with RPMI8266. Description: inhibition of multiple myeloma cell growth, RPMI8266 cells. In kind it is cell-based. The following applies: Homo sapiens. An excerpt:
(§1) FIG. 2 is a schematic showing in vitro biological assays to validate screened compounds for multiple myeloma cells growth via inhibition of p62-zz domain and PKCζ phosphorylation.

In a further data set the test system is MM1S. Description: inhibition of multiple myeloma cell growth, MM1S cells. In kind it is cell-based. The following applies: Homo sapiens, MM1.S.
From the text: as §1

Another data set relates to U266. Description: inhibition of multiple myeloma cell growth, U266 cells. In kind it is cell-based. The settings on record: Homo sapiens, U-266.
From the text: as §1

Data set [1] has as its system RPMI-8226 human multiple myeloma xenograft. Nature of the data set: subcutaneous RPMI-8226 human multiple myeloma xenograft model: efficacy and tolerability. In kind it is in vivo. On the procedure: The therapeutic efficacy and tolerability of compound XIELP1-106 (also referred to as 10b) was evaluated in the treatment of subcutaneous RPMI-8226 human multiple myeloma xenograft model. The tumor volumes in the two groups at different time points are shown FIG. 3. The mean tumor volume of the XIELP1-106 vehicle control group reached 1,452 mm3 on day 39 after tumor implantation. The treatment of XIELP1-106 (60 mg/kg, ip, q3d×4 wks) produced a strong antitumor activity with T/C value of 23% (p=0.001).
The median survival time (MST) of the vehicle treated mice was 42 days (FIG. 4).
On the technique in general: In xenograft studies the graft and the host belong to different species.

The IC50 is the point on the concentration scale where inhibition reaches its midpoint. Higher therefore signals lower potency.

Structures can show the parent of a compound that is named as a salt.

Consider `Fc1ccc(COc2ccc(CNC3CCCCC3)cc2OCc2ccc(F)cc2F)c(F)c1` [XIELP1-20a, N-(3,4-bis((2,4-difluorobenzyl)oxy)benzyl)cyclohexanamine], for which the IC50 in the data set on RPMI8266 was determined as 1.13 µM; in the data set with MM1S, 2.53 µM.

In the case of `Fc1ccc(COc2cc(CNCC3CCCCC3)cc(OCc3ccc(F)cc3F)c2)c(F)c1` [XIELP1-58, N-(3,5-bis((2,4-difluorobenzyl)oxy)benzyl)-1-cyclohexylmethanamine], the IC50 in the data set with RPMI8266 worked out at 1.4 µM; in the data set on MM1S, 2.5 µM.

With `Fc1ccc(COc2cc(CNC3CCCCC3)cc(OCc3ccc(F)cc3F)c2)c(F)c1` [XIELP1-60, N-(3,5-bis((2,4-difluorobenzyl)oxy)benzyl)cyclohexanamine], the figures for the IC50 in the data set with RPMI8266 and in the data set with MM1S were 1.33 µM and 2.51 µM, respectively.

In the case of `Cc1ccc(COc2ccc(CNC3CCCCC3)cc2OCc2ccc(C)cc2)cc1` [XIELP1-51, N-(3,4-bis((4-methylbenzyl)oxy)benzyl)cyclohexanamine], the IC50 in the data set on RPMI8266 is 1.83 µM; in the data set with MM1S it was 5.36 µM.

In the case of `Cc1ccc(COc2ccc(CNCC3CCCCC3)cc2OCc2ccc(C)cc2)cc1` [XIELP1-25b], the IC50 in the data set on U266 turned out to be 1.26 µM; in the data set with RPMI8266 it was 0.92 µM; in the data set with MM1S, 1.51 µM.

For `Fc1ccc(COc2ccc(CNCC3CCCCC3)cc2OCc2ccc(F)cc2F)c(F)c1` [XIELP1-17b, N-(3,4-bis((2,4-difluorobenzyl)oxy)benzyl)-1-cyclohexylmethanamine], the results for the IC50 in the data set with RPMI8266 and in the data set on MM1S were 0.94 µM and 0.84 µM, respectively.

On to `Fc1ccc(COc2ccc(CNC3CCCCC3)cc2OCc2ccc(F)cc2)cc1` [XIELP1-12b, N-(3,4-bis((4-fluorobenzyl)oxy)benzyl)cyclohexanamine], for which the IC50 came out at 1.18 µM in the data set on RPMI8266 and 1.77 µM in the data set on MM1S.

Take `Cc1ccc(COc2ccc(CNCCO)cc2OCc2ccc(C)cc2)cc1` [XIELP1-24b, 2-((3,4-bis((4-methylbenzyl)oxy)benzyl)amino)ethan-1-ol]: the IC50 in the data set on U266 is 1.21 µM; with RPMI8266 it was 0.63 µM; in the data set on MM1S, 2.56 µM.

As to `Fc1ccc(COc2ccc(CNCC3CCCCC3)cc2OCc2ccc(F)cc2)cc1` [XIELP1-106, N-(3,4-bis((4-fluorobenzyl)oxy)benzyl)-1-cyclohexylmethanamine Hydrochloride], in data set [1] (60 mg/kg, ip, q3d×4 wks, tumor volume vs vehicle control, day 39 after tumor implantation, p=0.001), the “T/C value (antitumor activity)” value came to 23%. The same compound had a body weight loss in data set [1] (mice, 60 mg/kg ip q3d, after 3 doses, tolerability developed afterwards) of 11.2%. For the same compound, the “other gross clinical abnormality” value in data set [1] (mice, 60 mg/kg ip q3d×4 wks) is listed as “No other gross clinical abnormality was observed”. Moreover, the IC50 in the data set on RPMI8266 worked out at 0.72 µM; in the data set on MM1S it was 2.46 µM.

Values taken from US11560352B2, “P62-ZZ small molecule modulators” (University of Pittsburgh—Of the Commonwealth System of …, priority 2015, dated 2023).
